Data as given in US20080292561A1, “Pyrazolo-Pyrimidine Derivatives as Anti-Inflammatory Agents” (Glaxo Group Limited, priority 2005, published 2008).

system: NFkB activity; test: Glucocorticoid mediated transrepression of NFkB activity (A549 cells, ELAM promoter alkaline phosphatase reporter, TNFα); assay type: cell-based; details: Homo sapiens, A549, 16 h, Human A549 lung epithelial cells, 3 ng/ml human recombinant TNFα, read-out: pIC50, transrepression of NFkB activity (converted)
Excerpt: Human A549 lung epithelial cells were engineered to contain a secreted placental alkaline phosphatase gene under the control of the distal region of the NFkB dependent ELAM promoter as previously described in Ray, K. P., Farrow, S., Daly, M., Talabot, F. and Searle, N. “Induction of the E-selectin promoter by interleukin 1 and tumour necrosis factor alpha, and inhibition by glucocorticoids” Biochemical Journal (1997) 328: 707-15.
Compounds were solvated and diluted in DMSO, and transferred directly into assay plates such that the final concentration of DMSO was 0.7%. Following the addition of cells (40K per well), plates were incubated for 1 hr prior to the addition of 3 ng/ml human recombinant TNFα. Following continued incubation for 16 hr, alkaline phosphatase activity was determined by measuring the change in optical density at 405 nm with time following the addition of 0.7 volumes of assay buffer (1 mg/ml p-nitrophenylphosphate dissolved in 1M diethanolamine, 0.28M NaCl, 0.5 mM MgCl2). Dose response curves were constructed from which EC50 values were estimated.

| Structure (SMILES) | IC50 [nM] |
| --- | --- |
| Cc1nc(NCC(O)(CC(C)(C)c2cc(F)ccc2O)C(F)(F)F)c2cnn(-c3ccc(F)cc3F)c2n1 (single isomer, unassigned) [Example 25, 2-[3-({[1-(2,4-Difluorophenyl)-6-methyl-1H-pyrazolo[3,4-d]pyrimidin-4-yl]amino}methyl)-4,4,4-trifluoro-3-hydroxy-1,1-dimethylbutyl]-4-fluorophenol] | < 100 |
| COc1ccc(F)cc1C(C)(C)CC(O)(CNc1nc(C)nc2c1cnn2-c1ccccc1F)C(F)(F)F (stereo not shown) [Example 14, 1,1,1-Trifluoro-4-[5-fluoro-2-(methyloxy)phenyl]-2-({[1-(2-fluorophenyl)-6-methyl-1H-pyrazolo[3,4-d]pyrimidin-4-yl]amino}methyl)-4-methyl-2-pentanol] | < 100 |
| COc1ccc(F)cc1C(C)(C)CC(O)(CNc1nc(C)nc2c1cnn2-c1ccc(F)cc1)C(F)(F)F (stereo not shown) [Example 15, 1,1,1-Trifluoro-4-[5-fluoro-2-(methyloxy)phenyl]-2-({[1-(4-fluorophenyl)-6-methyl-1H-pyrazolo[3,4-d]pyrimidin-4-yl]amino}methyl)-4-methyl-2-pentanol] | < 100 |
| COc1ccc(F)cc1C(C)(C)CC(O)(CNc1nc(C)nc2c1cnn2-c1ccc(F)cc1F)C(F)(F)F (stereo not shown) [Example 16, 2-({[1-(2,4-Difluorophenyl)-6-methyl-1H-pyrazolo[3,4-d]pyrimidin-4-yl]amino}methyl)-1,1,1-trifluoro-4-[5-fluoro-2-(methyloxy)phenyl]-4-methyl-2-pentanol] | < 100 |
| COc1ccc(F)cc1C(C)(C)CC(O)(CNc1nc(C)nc2c1cnn2-c1cccnc1)C(F)(F)F (stereo not shown) [Example 17, 1,1,1-Trifluoro-4-[5-fluoro-2-(methyloxy)phenyl]-4-methyl-2-({[6-methyl-1-(3-pyridinyl)-1H-pyrazolo[3,4-d]pyrimidin-4-yl]amino}methyl)-2-pentanol] | < 100 |
| COc1ccc(F)cc1C(C)(C)CC(O)(CNc1nc(C)nc2c1cnn2-c1ccncc1)C(F)(F)F (stereo not shown) [Example 18, 1,1,1-Trifluoro-4-[5-fluoro-2-(methyloxy)phenyl]-4-methyl-2-({[6-methyl-1-(4-pyridinyl)-1H-pyrazolo[3,4-d]pyrimidin-4-yl]amino}methyl)-2-pentanol] | < 100 |
| COc1ccc(F)cc1C(C)(C)CC(O)(CNc1nc(C)nc2c1cnn2-c1ccsc1)C(F)(F)F (stereo not shown) [Example 19, 1,1,1-Trifluoro-4-[5-fluoro-2-(methyloxy)phenyl]-4-methyl-2-({[6-methyl-1-(3-thienyl)-1H-pyrazolo[3,4-d]pyrimidin-4-yl]amino}methyl)-2-pentanol] | < 100 |
| COc1ccc(F)cc1C(C)(C)CC(O)(CNc1nc(C)nc2c1cnn2-c1ccc(F)nc1)C(F)(F)F (stereo not shown) [Example 20, 1,1,1-Trifluoro-4-[5-fluoro-2-(methyloxy)phenyl]-2-({[1-(6-fluoro-3-pyridinyl)-6-methyl-1H-pyrazolo[3,4-d]pyrimidin-4-yl]amino}methyl)-4-methyl-2-pentanol] | < 100 |
| COc1ccc(F)cc1C(C)(C)CC(O)(CNc1nc(C)nc2c1cnn2-c1ccc(C#N)cc1)C(F)(F)F (stereo not shown) [Example 21, 4-(4-{[4-[5-Fluoro-2-(methyloxy)phenyl]-2-hydroxy-4-methyl-2-(trifluoromethyl)pentyl]amino}-6-methyl-1H-pyrazolo[3,4-d]pyrimidin-1-yl)benzonitrile] | < 100 |
| CCOC(=O)c1cccc(-n2ncc3c(NCC(O)(CC(C)(C)c4cc(F)ccc4OC)C(F)(F)F)nc(C)nc32)c1 (stereo not shown) [Example 22, Ethyl 3-(4-{[4-[5-fluoro-2-(methyloxy)phenyl]-2-hydroxy-4-methyl-2-(trifluoromethyl)pentyl]amino}-6-methyl-1H-pyrazolo[3,4-d]pyrimidin-1-yl)benzoate] | < 100 |
| COC(=O)c1cccc(-n2ncc3c(NCC(O)(CC(C)(C)c4cc(F)ccc4OC)C(F)(F)F)nc(C)nc32)c1 (stereo not shown) [Example 23, Methyl 3-(4-{[4-[5-fluoro-2-(methyloxy)phenyl]-2-hydroxy-4-methyl-2-(trifluoromethyl)pentyl]amino}-6-methyl-1H-pyrazolo[3,4-d]pyrimidin-1-yl)benzoate] | < 100 |
| CCc1nc(NCC(O)(CC(C)(C)c2cc(F)ccc2OC)C(F)(F)F)c2cnn(-c3ccc(F)cc3)c2n1 (stereo not shown) [Example 24, 2-({[6-Ethyl-1-(4-fluorophenyl)-1H-pyrazolo[3,4-d]pyrimidin-4-yl]amino}methyl)-1,1,1-trifluoro-4-[5-fluoro-2-(methyloxy)phenyl]-4-methyl-2-pentanol] | < 100 |

The next lines start with the values.

| IC50 [nM] | Structure (SMILES) |
| --- | --- |
| < 100 | Cc1nc(NCC(O)(CC(C)(C)c2cccc3c2OCC3)C(F)(F)F)c2cnn(-c3ccccc3)c2n1 (stereo not shown) [Example 1, 4-(2,3-Dihydro-1-benzofuran-7-yl)-1,1,1-trifluoro-4-methyl-2-{[(6-methyl-1-phenyl-1H-pyrazolo[3,4-d]pyrimidin-4-yl)amino]methyl}-2-pentanol] |
| < 100 | Cc1nc(NCC(O)(CC(C)(C)c2cccc3c2OCC3)C(F)(F)F)c2cnn(-c3ccccc3F)c2n1 (stereo not shown) [Example 2, 4-(2,3-Dihydro-1-benzofuran-7-yl)-1,1,1-trifluoro-2-({[1-(2-fluorophenyl)-6-methyl-1H-pyrazolo[3,4-d]pyrimidin-4-yl]amino}methyl)-4-methyl-2-pentanol] |
| < 100 | Cc1nc(NCC(O)(CC(C)(C)c2cccc3c2OCC3)C(F)(F)F)c2cnn(-c3ccc(F)cc3)c2n1 (stereo not shown) [Example 3, 4-(2,3-Dihydro-1-benzofuran-7-yl)-1,1,1-trifluoro-2-({[1-(4-fluorophenyl)-6-methyl-1H-pyrazolo[3,4-d]pyrimidin-4-yl]amino}methyl)-4-methyl-2-pentanol] |
| < 100 | Cc1nc(NCC(O)(CC(C)(C)c2cccc3c2OCC3)C(F)(F)F)c2cnn(-c3ccc(F)cc3F)c2n1 (stereo not shown) [Example 4, 2-({[1-(2,4-Difluorophenyl)-6-methyl-1H-pyrazolo[3,4-d]pyrimidin-4-yl]amino}methyl)-4-(2,3-dihydro-1-benzofuran-7-yl)-1,1,1-trifluoro-4-methyl-2-pentanol] |
| < 100 | CCc1nc(NCC(O)(CC(C)(C)c2cccc3c2OCC3)C(F)(F)F)c2cnn(-c3ccccc3)c2n1 (stereo not shown) [Example 5, 4-(2,3-Dihydro-1-benzofuran-7-yl)-2-{[(6-ethyl-1-phenyl-1H-pyrazolo[3,4-d]pyrimidin-4-yl)amino]methyl}-1,1,1-trifluoro-4-methyl-2-pentanol] |
| < 100 | CCc1nc(NCC(O)(CC(C)(C)c2cccc3c2OCC3)C(F)(F)F)c2cnn(-c3ccccc3F)c2n1 (stereo not shown) [Example 6, 4-(2,3-Dihydro-1-benzofuran-7-yl)-2-({[6-ethyl-1-(2-fluorophenyl)-1H-pyrazolo[3,4-d]pyrimidin-4-yl]amino}methyl)-1,1,1-trifluoro-4-methyl-2-pentanol] |
| < 100 | CCc1nc(NCC(O)(CC(C)(C)c2cccc3c2OCC3)C(F)(F)F)c2cnn(-c3ccc(F)cc3)c2n1 (stereo not shown) [Example 7, 4-(2,3-Dihydro-1-benzofuran-7-yl)-2-({[6-ethyl-1-(4-fluorophenyl)-1H-pyrazolo[3,4-d]pyrimidin-4-yl]amino}methyl)-1,1-trifluoro-4-methyl-2-pentanol] |
| < 100 | CCc1nc(NCC(O)(CC(C)(C)c2cccc3c2OCC3)C(F)(F)F)c2cnn(-c3ccc(F)cc3F)c2n1 (stereo not shown) [Example 8, 2-({[1-(2,4-Difluorophenyl)-6-ethyl-1H-pyrazolo[3,4-d]pyrimidin-4-yl]amino}methyl)-4-(2,3-dihydro-1-benzofuran-7-yl)-1,1,1-trifluoro-4-methyl-2-pentanol] |
| < 100 | CCc1nc(NCC(O)(CC(C)(C)c2cccc3c2OCC3)C(F)(F)F)c2cnn(-c3cccnc3)c2n1 (stereo not shown) [Example 9, 4-(2,3-Dihydro-1-benzofuran-7-yl)-2-({[6-ethyl-1-(3-pyridinyl)-1H-pyrazolo[3,4-d]pyrimidin-4-yl]amino}methyl)-1,1,1-trifluoro-4-methyl-2-pentanol] |
| < 100 | CCc1nc(NCC(O)(CC(C)(C)c2cccc3c2OCC3)C(F)(F)F)c2cnn(-c3ccncc3)c2n1 (stereo not shown) [Example 10, 4-(2,3-Dihydro-1-benzofuran-7-yl)-2-({[6-ethyl-1-(4-pyridinyl)-1H-pyrazolo[3,4-d]pyrimidin-4-yl]amino}methyl)-1,1,1-trifluoro-4-methyl-2-pentanol] |
| < 100 | CCc1nc(NCC(O)(CC(C)(C)c2cccc3c2OCC3)C(F)(F)F)c2cnn(-c3ccc(F)nc3)c2n1 (stereo not shown) [Example 11, 4-(2,3-Dihydro-1-benzofuran-7-yl)-2-({[6-ethyl-1-(6-fluoro-3-pyridinyl)-1H-pyrazolo[3,4-d]pyrimidin-4-yl]amino}methyl)-1,1,1-trifluoro-4-methyl-2-pentanol] |
| < 100 | CCc1nc(NCC(O)(CC(C)(C)c2cccc3c2OCC3)C(F)(F)F)c2cnn(-c3ccsc3)c2n1 (stereo not shown) [Example 12, 4-(2,3-Dihydro-1-benzofuran-7-yl)-2-({[6-ethyl-1-(3-thienyl)-1H-pyrazolo[3,4-d]pyrimidin-4-yl]amino}methyl)-1,1,1-trifluoro-4-methyl-2-pentanol] |
| < 100 | COc1ccc(F)cc1C(C)(C)CC(O)(CNc1nc(C)nc2c1cnn2-c1ccccc1)C(F)(F)F (stereo not shown) [Example 13, 1,1,1-Trifluoro-4-[5-fluoro-2-(methyloxy)phenyl]-4-methyl-2-{[(6-methyl-1-phenyl-1H-pyrazolo[3,4-d]pyrimidin-4-yl)amino]methyl}-2-pentanol] |
